A short description of data set [1]: Aerosol performance by Next Generation Impactor (NGI), drug quantified by HPLC. Type of data set: physicochemical. The conditions noted are these: BDP + FF 100 + 6 μg/10 mg DPI 37° C. 75% RH T-vol 500; connected to ventilation system through the connector. On the procedure: A powder formulation was prepared according to the teaching of Examples 2 and 3 of WO 2013/110632 and loaded in the multi-dose dry powder inhaler described in WO 2016/000983. A ventilator system Monnal T75, available from Air Liquid Medical Systems […], Italy) was used. A Catheter mounth (ID 10 mm, length 17 cm) and an endotracheal catheter (ID 8 mm, length 8.5 cm) were also utilized. Other equipments were standard. The following conditions were set-up: tidal volume: 500 ml; PEEP 5 cmH2O; Flow rate: about 41 l/min; breath frequency: 15 bpm. All tests were performed at room temperature and lung temperature (about 37° C.) with in line humidification (about 75% relative humidity system). The inhaler was connected to the ventilation system through the connector of the invention. The evaluation of the aerosol performance was carried out using the Next Generation Impactor (NGI) according to the conditions reported in the European Pharmacopeia 8.5th Ed 2015, par 2.9.18, pages 309-320. After aerosolization of three doses from the inhaler device, the NGI apparatus was disassembled and the amounts of drug deposited in the stages were recovered by washing with a solvent mixture and then quantified by High-Performance Liquid Chromatography (HPLC).

Assay in data set [2]: as above
The conditions noted are these: BDP + FF 100 + 6 μg/10 mg DPI - Release. It counts as physicochemical.

Molecules are shown by their SMILES. Where a name gives a salt, the structure may show the parent alone.

For `COc1ccc(CC(C)NCC(O)c2ccc(O)c(NC=O)c2)cc1` (stereo not drawn) [FF, formoterol fumarate dihydrate], the “DD (delivered dose)” value in data set [1] came to 3.84 µg; in data set [2], 4.64 µg.
Consider `CCC(=O)OCC(=O)[C@@]1(OC(=O)CC)[C@@H](C)C[C@H]2[C@@H]3CCC4=CC(=O)C=C[C@]4(C)[C@@]3(Cl)[C@@H](O)C[C@@]21C` [BDP, beclometasone dipropionate], for which, in data set [1], the “DD (delivered dose)” value is 66.52 µg, the “EFPF (extrafine particle fraction)” value came to 34.76 % on DD, the “EFPM (extrafine FPM)” value came out at 23.12 µg and the “FPF (fine particle fraction)” value worked out at 61.92 % on DD. Moreover, in data set [1], the “FPM (fine particle mass, particle size equal to or lower than 5.0 micron)” value is 41.19 µg. Besides, in data set [2], the “DD (delivered dose)” value was determined as 81.05 µg, the “EFPF (extrafine particle fraction)” value stood at 29.43 % on DD, the “EFPM (extrafine FPM)” value was 23.85 µg and the “FPF (fine particle fraction)” value stood at 64.14 % on DD. Also, the “FPM (fine particle mass, particle size equal to or lower than 5.0 micron)” value in data set [2] was determined as 51.99 µg.

(Values after patent publication US12097329B2, “Apparatus to administer drugs to mechanically ventilated patients” (Chiesi Farmaceutici S.p.A., priority 2018, dated 2024).)
